Reference: publication PMC7477407, “In vivo studies of a peptidomimetic that targets EGFR dimerization in NSCLC” (Journal of Cancer, 2020)
Like-named read-outs stand apart in the source and are kept apart here. Numbered stars: 1 amine (or outer) side, 2 acyl side, 3 side chain; on linkers, the order of the positions; unused ones are H or OH. Square brackets hold non-standard residues; d marks the D form. Peptide text beside a SMILES is read from it. βAla(3R-(1-naphthyl)) = O=C(C[C@@H](N[*:1])c1cccc2ccccc12)[*:2]

Key:
[1] = test system: phosphorylated HER2 protein (p-HER2); test: Western blot of HER2 phosphorylation in A549 cells; assay type: cell-based, human; conditions: 2 µM, 36 h, Western blot densitometry
Protocol: (§1) A549 cells were treated with 2 µM 18 or 2 µM lapatinib (positive control). Cells without treatment were employed as a negative control. Cells were treated for 36 h, washed, and trypsinized. 35 μg of protein from each sample was loaded on Novex® 4-20% tris-glycine gels and transferred into nitrocellulose membranes. The membranes were blocked with 2% bovine serum albumin solution and incubated with primary antibodies overnight at 4 °C. Antibodies for the detection of total HER2 protein (t-HER2), phosphorylated HER2 protein (p-HER2), total AKT (t-AKT); (Cell Signaling Technology, phosphorylated AKT (P-Akt, S473); (Cell Signaling Technology) were used at 1:1000 dilution. Secondary antibodies with HRP conjugation was incubated for 1 h. After the addition of the substrate and enhancer solutions from a super signal enhanced chemiluminescence kit (Pierce, Rockford, IL) to the membrane, images were captured using ChemiDoc™ Touch Gel Imaging System (Bio-Rad), and band densities were quantified. A representative Western blot image was used for the final presentation. Data are from triplicates and are presented as the mean ± standard error of the mean (SEM). To evaluate the significance, statistical analysis was performed by a one-tail T-test using Prism Graph Pad (GraphPad Software, San Diego). P< 0.05 was considered statistically significant, [32].

in vitro [2] = conditions: simulated gi fluid
Protocol: (§10) Simulated intestinal fluid TS and simulated gastric fluid were purchased from Ricca Chemical (Arlington, TX). Pepsin (0.32 g/100 ml) was added to the simulated gastric fluid. To determine the effect of simulated gastric and intestinal fluids on 18, it (10µM) was incubated in gastric fluid with pepsin for 6 h and intestinal fluid for 12 h at 37 °C. Samples were taken at particular time intervals and analyzed using the HPLC method [33]. Methods used were similar to the methods explained above for HPLC analysis.

SKBR-3 = test system: SKBR-3; set-up: method as in ref 20 (Kanthala et al. Oncotarget 8(43):74244-74262); conditions: SKBR-3 breast cancer, HER2+; ref 20 (Kanthala et al. Oncotarget 8(43):74244-74262); read-out: IC50, antiproliferative activity in SKBR-3; cited from earlier work
[3] = biological target: human serum albumin (HSA) (Homo sapiens, UniProt P02768)
Sequence of human serum albumin (HSA) (P02768 25-609): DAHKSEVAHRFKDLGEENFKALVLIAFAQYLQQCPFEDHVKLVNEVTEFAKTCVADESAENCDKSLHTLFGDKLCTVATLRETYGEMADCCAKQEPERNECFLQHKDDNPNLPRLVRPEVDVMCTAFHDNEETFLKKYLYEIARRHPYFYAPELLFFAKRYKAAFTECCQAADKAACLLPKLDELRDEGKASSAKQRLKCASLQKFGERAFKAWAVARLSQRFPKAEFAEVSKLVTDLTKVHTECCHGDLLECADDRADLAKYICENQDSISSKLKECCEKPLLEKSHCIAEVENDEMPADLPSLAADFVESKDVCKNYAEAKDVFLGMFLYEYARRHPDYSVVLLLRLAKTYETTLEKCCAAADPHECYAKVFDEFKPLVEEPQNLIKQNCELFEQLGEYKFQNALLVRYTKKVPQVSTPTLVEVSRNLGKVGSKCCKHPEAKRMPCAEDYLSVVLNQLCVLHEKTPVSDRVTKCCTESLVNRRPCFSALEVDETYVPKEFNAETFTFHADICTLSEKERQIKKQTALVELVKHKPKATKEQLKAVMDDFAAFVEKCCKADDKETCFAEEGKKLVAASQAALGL
Protocol: Surface plasmon resonance analysis was performed in 0.01 M phosphate-buffered saline (NaCl 0.138 M; KCl -0.0027 M); Tween® 20 -0.05%, pH 7.4 using a Reichert Life Sciences System. Immobilization of HSA to the hydrophilic carboxymethylated dextran matrix of the CM5 sensor chip was carried out by the standard primary amine coupling method. […] All binding experiments were performed at a flow rate of 25 µL/min. After each interaction analysis, the sensor chip was regenerated with water. […] The Kd values were obtained using the 1:1 kinetic evaluation fitting tool of Tracedrawer software.

[4] = mouse, in vivo, iv
Protocol: (§11) Female Foxn1-nude, 6-7 week-old mice (Envigo) were used in all studies.
(§12) After administration of the compound, mice were sacrificed at certain time intervals (0, 0.25, 0.75, 2, 4, 6, 12 and 24 h), and blood samples were taken to study the amount of compound remaining in blood circulation. The samples were then centrifuged at 1000 rpm for 5 min. The separated supernatant serum samples were precipitated by acetonitrile to extract the analytes and passed through the Sep-Pak (Waters) column. Chromatographic separation was performed on an HPLC. Mass spectrometry was used to identify the correct molecular ion of the intact compound.
(§13) Blood samples were collected at different time intervals, and analysis of the sample was accomplished using HPLC and mass spectrometry. […] For pharmacokinetic parameter analysis, PKSolver software was used [50]. […] Based on the AIC, SC, and curve fitting by the PKSolver software, intravenous bolus administration/two compartmental model was selected for deriving our reported pharmacokinetic parameters.

[5] = test system: A549 Red-FLuc lung tumors; test: Antitumor assessment, experimental metastasis lung cancer model, bioluminescence imaging; assay type: in vivo; conditions: 18 6 mg/kg, lapatinib 10 mg/kg, twice a week; A549-Red-FLuc lung tumors in nude mice
Protocol: All animal studies were conducted in accordance with NIH guidelines for care, and use of laboratory animals and protocols were approved by the Institutional Animal Care and Use Committee at the University of Louisiana Monroe. Bioware® Brite Cell Line A549 Red-FLuc cells that had been engineered to express firefly luciferase (Perkin Elmer) were injected into the tail vein (4.5 × 10^6 cells in 200 µl PBS per mouse) of 6-week-old Foxn1^nu-nude mice. For bioluminescence imaging, mice were anesthetized with 1-3% isoflurane and 150 mg/kg of D-luciferin (PerkinElmer) in phosphate-buffered saline (PBS) was given by intraperitoneal injection. 8 min after injection, bioluminescence was imaged with an IVIS Lumina III Series (PerkinElmer), and regions of interest (ROI) were drawn around the bioluminescent signals and quantified as photons/second (p/s). Mice with tumors were divided into three groups viz. control (vehicle), 18 treatment, and lapatinib treatment. After two weeks of the inoculation of tumor cells, mice from the respective groups were injected intravenously with 18 (6 mg/kg) or lapatinib (10 mg/kg) or vehicle twice a week for the next three weeks. To evaluate the effect of the treatments, tumors were imaged, and bioluminescence was measured once a week. […]

HER2 phosphorylation = test: Western blot of HER2 phosphorylation in lung tumor tissue; assay type: in vivo, mice; conditions: tumors harvested day 35; 18 6 mg/kg, lapatinib 10 mg/kg
Protocol: as §1, with “Data are from triplicates and are presented as the mean ± standard error of the mean (SEM). To evaluate the significance, statistical analysis was performed by a one-tail T-test using Prism Graph Pad (GraphPad Software, San Diego). P< 0.05 was considered statistically significant, [32].” left out
All animal studies were conducted in accordance with NIH guidelines for care, and use of laboratory animals and protocols were approved by the Institutional Animal Care and Use Committee at the University of Louisiana Monroe. […] To evaluate the effect of the treatments, tumors were imaged, and bioluminescence was measured once a week. […]

physchem = conditions: buffer, pH 1
From the text: Shimadzu FCV-20AH2 manual injector was used with Ultra C18, 5 µm (250 × 4.6 mm) column, Shimadzu SPD-20A UV/Vis detector, and Shimadzu LC-20AP pump. 40% acetonitrile (0.1% TFA) with 60% water (0.1% TFA) was used as mobile phase. Relative Peak area was plotted as % remaining compound with respect to time compared with zero time point, and data are from triplicate experiments. For pH stability, a buffer with pH 1 was obtained by adding 0.1 M HCl, and a buffer with pH 7.5 was obtained by adding 0.1 M PBS (Sigma).

[6] = 25 to 80 °C, 18 μM
Protocol: Circular dichroism experiments were done using a Jasco J-815 CD Spectrometer (Jasco, Japan) at temperatures from 20 to 80 °C with a gradual 5 °C increase before reading. […] The spectra for samples were recorded from 185-350 nm wavelengths with a total of four scans for each temperature, and wavelength vs. ellipticity was plotted for an average of four scans.

[7] = mouse, in vivo, iv; remark: listed apart in the source
Protocol: as §11, §12, §13

HER2 expression = test system: HER2 expression; set-up: method as in ref 20 (a number printed in a supplementary file, which may have a reference list of its own: not looked up in the article's list); conditions: HER2-positive breast cancer xenograft, 4 mg/kg IV; cited from earlier work
in vitro [8] = conditions: simulated gi fluid; remark: listed apart in the source
Protocol: as §10
EGFR:HER2 dimerization = biological target: T1, EGFR:HER2 dimerization (Homo sapiens, UniProt P04626); test: Proximity ligation assay on lung tumor tissue, EGFR:HER2; assay type: in vivo, mice; conditions: 6 mg/kg, vs vehicle control
T1 construct: from tissue; host or cells: Lung tumour tissue of nude mice injected IV with A549-Red-FLuc human NSCLC cells
T1 sequence (P04626 23-1255): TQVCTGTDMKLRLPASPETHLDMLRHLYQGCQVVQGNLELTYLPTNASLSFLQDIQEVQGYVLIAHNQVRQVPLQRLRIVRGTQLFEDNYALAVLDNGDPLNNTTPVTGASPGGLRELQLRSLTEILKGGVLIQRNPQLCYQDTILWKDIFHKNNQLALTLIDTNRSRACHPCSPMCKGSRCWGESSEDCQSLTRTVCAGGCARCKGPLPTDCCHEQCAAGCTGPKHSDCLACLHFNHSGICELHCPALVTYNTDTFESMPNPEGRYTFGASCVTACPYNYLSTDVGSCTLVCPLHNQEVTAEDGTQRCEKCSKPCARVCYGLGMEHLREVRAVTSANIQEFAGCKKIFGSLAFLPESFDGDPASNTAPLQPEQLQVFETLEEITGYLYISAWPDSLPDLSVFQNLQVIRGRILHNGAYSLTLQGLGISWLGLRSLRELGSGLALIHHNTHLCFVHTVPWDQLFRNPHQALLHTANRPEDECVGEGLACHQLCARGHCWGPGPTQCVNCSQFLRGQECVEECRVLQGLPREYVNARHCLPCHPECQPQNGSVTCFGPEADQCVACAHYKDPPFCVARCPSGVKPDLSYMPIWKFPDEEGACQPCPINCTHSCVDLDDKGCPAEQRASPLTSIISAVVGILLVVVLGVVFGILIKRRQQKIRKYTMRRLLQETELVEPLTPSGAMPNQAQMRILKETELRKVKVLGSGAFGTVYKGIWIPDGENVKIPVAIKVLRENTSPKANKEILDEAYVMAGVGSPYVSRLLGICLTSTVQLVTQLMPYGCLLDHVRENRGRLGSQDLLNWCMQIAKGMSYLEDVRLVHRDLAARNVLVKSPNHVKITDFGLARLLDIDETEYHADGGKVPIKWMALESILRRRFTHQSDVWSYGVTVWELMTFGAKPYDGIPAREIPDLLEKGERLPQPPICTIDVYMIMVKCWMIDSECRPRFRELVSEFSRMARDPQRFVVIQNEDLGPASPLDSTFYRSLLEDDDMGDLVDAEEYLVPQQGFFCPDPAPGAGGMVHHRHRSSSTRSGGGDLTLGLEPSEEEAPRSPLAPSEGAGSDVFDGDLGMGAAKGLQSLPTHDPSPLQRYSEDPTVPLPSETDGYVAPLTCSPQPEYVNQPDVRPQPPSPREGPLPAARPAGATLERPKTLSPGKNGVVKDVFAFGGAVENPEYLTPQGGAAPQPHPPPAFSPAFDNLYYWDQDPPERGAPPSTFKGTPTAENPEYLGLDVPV
Protocol: (§2) The lung tissue samples with tumors were fixed on the slides. […] Antigen retrieval on the tissue section of slides was done in a steaming sodium citrate buffer (10 mM, 0.05% Tween 20, pH 6.0) for 15 min. Tissue slides were incubated with primary antibodies overnight at 4 °C and washed, and secondary antibodies PLA+ and PLA- were added. After incubation and washing, PLA detection reagents were added, [36]. The mounting medium was then added, and the slides were coverslipped. Slides were viewed using an Olympus BX63 fluorescence microscope fitted with deconvolution optics using DAPI, and Texas Red filters. Images were obtained at 40×.

[9] = test system: lung, heart, kidney, liver tissue; assay type: in vivo, mice; conditions: for Lung histology (H&E) compared to vehicle: day 35, 18 6 mg/kg, lapatinib 10 mg/kg
Protocol: For histopathological analysis, lungs, kidney, liver, heart, and pancreas were excised from the mice and fixed with 10% normal formalin solution. These fixed samples were embedded in paraffin, and slides were prepared by cutting them into 5 μm slices and mounting on the glass. Prepared slides were stained using hematoxylin and eosin (H&E) staining. Slides were visualized under a microscope (Nikon labophot 2. Type120) and pictures were taken at different magnifications for analysis. Representative pictures from histopathology analysis were used for presentation.

MCF-10A = test system: MCF-10A; set-up: method as in ref 20 (a number printed in a supplementary file, which may have a reference list of its own: not looked up in the article's list); conditions: MCF-10A non-cancerous breast cell line, basal HER2; read-out: IC50, antiproliferative activity in MCF-10A; cited from earlier work
MCF-7 = MCF-7 breast cancer, HER2-; read-out: IC50, antiproliferative activity in MCF-7; cited from earlier work
SKOV-3 = conditions: read-out: IC50, antiproliferative activity in SKOV-3; SKOV-3 ovarian cancer, HER2+
Protocol: (§3) In a 96-well plate, 1 × 10^4 cells/well were seeded and incubated overnight at 37 °C and 5% CO2. The stock solution of the peptidemimetic was prepared by dissolving them in DMSO. Stock solutions of the compound and controls were diluted using the serum-free medium to prepare solutions of different concentrations of compounds with DMSO concentration not exceeding 1% (v/v) in the final solution in each well of a 96-well plate. […] A dose-response curve was generated using percentage cell viability vs. log concentration of compounds, and IC50 values were obtained using Prism® (GraphPad Software). Experiments were repeated three times to obtain standard deviation values.
(§4) In vivo Studies of a Peptidomimetic that Targets EGFR
(§5) Leeza Shrestha1, Sitanshu Singh1, Pravin Parajuli1, Achyut Dahal1, George Mattheolabakis1,
(§6) Sharon Meyer1, Joydeep Bhattacharjee2, Seetharama Jois1*
(§7) 1School of Basic Pharmaceutical and Toxicological Sciences, College of Pharmacy, University
(§8) of Louisiana Monroe, Monroe, LA 71201.
(§9) 2Biology Program, School of Sciences, University of Louisiana Monroe, Monroe, LA 71029.

NCI-H1975 = conditions: read-out: IC50, antiproliferative activity in NCI-H1975; NCI-H1975 EGFR mutated NSCLC cell line
Protocol: as §3, §4, §5, §6, §7, §8, §9

A549 cells = conditions: read-out: IC50, antiproliferative activity in A549; A549 NSCLC, HER2+; 72 h, serum-free medium, CellTiter-Glo
Protocol: HER2 positive A549 lung cancer cell line was purchased from American Type Culture Collection (ATCC, Manassas, VA) and subcultured in RPMI media (ATCC) with 10% FBS. […] Cells were incubated in a humidified atmosphere of 5% CO2 at 37°C.
HER2:HER3 dimerization = biological target: T2, HER2:HER3 dimerization (Homo sapiens, UniProt P04626); test: Proximity ligation assay on lung tumor tissue, HER2:HER3; assay type: in vivo, mice; conditions: 6 mg/kg, vs vehicle control
T2 construct: from tissue; host or cells: Lung tumour tissue of nude mice injected IV with A549-Red-FLuc human NSCLC cells
T2 sequence (P04626 23-1255): as above
Protocol: as §2

[10] = test system: phosphorylated AKT (P-Akt, S473); test: Western blot of Akt phosphorylation in A549 cells; assay type: cell-based, human; conditions: 2 µM, 36 h, Western blot densitometry
Protocol: as §1

N=C(N)NCCC[C@@H]1NC(=O)[C@H]2CCCN2C(=O)[C@@H]2CCCN2C(=O)[C@H](CCCNC(=N)N)NC(=O)C[C@H](c2cccc3ccccc23)NC(=O)[C@H](Cc2ccccc2)NC(=O)[C@H](CC(=O)O)NC(=O)[C@H](CC(=O)O)NC(=O)[C@H](Cc2ccccc2)NC(=O)C[C@H](c2cccc3ccccc23)NC1=O [Compound 18] (cyclo(DDF[βAla(3R-(1-naphthyl))]RP[dP]R[βAla(3R-(1-naphthyl))]F))
Inhibition of phosphorylation of HER2 compared to control [1]: 41.6% | remaining at 12 h, 10 µM (in vitro [2]): > 40% | IC50 (SKBR-3): 194 ± 46 nM | Compound in free form [3]: ~22% | AUC(0-inf) [4]: ~459 µg·h/mL | Vd [4]: ~0.011 L | clearance [4]: ~0.00433 mL/min | half-life ([4]; 4 mg/kg, Terminal half-life): ~42 h | half-life ([4]; 6 mg/kg, Terminal half-life): ~46 h | half-life ([4]; Distribution half-life): ~0.8 h | half-life ([4]; Terminal half-life in vivo): > 40 h | Time after which concentration decreases significantly at pH 1 (pH 1): > 4 days | Stability at pH 7.5 (pH 7.5): stable for 30 days | Rate of tumor growth indicated by total flux compared with vehicle [5]: decreased | HER2 phosphorylation in lung tumor tissue compared to control (HER2 phosphorylation): inhibited HER2 phosphorylation to a significant extent | remaining at 720 h (physchem): > 40% | Change of circular dichroism spectra (backbone conformation) with temperature [6]: did not show any significant change | Vd peripheral [7]: ~17 mL | Change in HER2 expression in xenograft tumor tissue (HER2 expression): no | remaining at 6 h, 10 µM (in vitro [8]): > 80% | EGFR:HER2 dimerization in lung tumor tissue (PLA red fluorescence) (EGFR:HER2 dimerization): reduction in red fluorescence | Toxicity to organs (heart, liver, lung, kidney), H&E ([9]; 6 mg/kg, three weeks of treatment): no significant tissue damage or toxic effects | Lung histology (H&E) compared to vehicle [9]: remarkably fewer tumors and less inflammatory infiltration | IC50 (MCF-10A): 40000 nM | IC50 (MCF-7): > 50000 nM | IC50 (SKOV-3): 853 ± 102 nM | IC50 (NCI-H1975): 4850 ± 217 nM | IC50 (A549 cells): 868 ± 32 nM | HER2:HER3 dimerization in lung tumor tissue (PLA red fluorescence) (HER2:HER3 dimerization): reduction in red fluorescence | Inhibition of phosphorylation of Akt compared to control [10]: 24.7%

CS(=O)(=O)CCNCc1ccc(-c2ccc3ncnc(Nc4ccc(OCc5cccc(F)c5)c(Cl)c4)c3c2)o1 [lapatinib, reference compound]
Rate of tumor growth indicated by total flux compared with vehicle [5]: decreased | HER2 phosphorylation in lung tumor tissue compared to control (HER2 phosphorylation): inhibited HER2 phosphorylation to a significant extent | Lung histology (H&E) compared to vehicle [9]: remarkably fewer tumors and less inflammatory infiltration
